test: Inhibition of EGFR L858R mutant (unknown origin) using poly (Glu, Tyr) as substrate after 40 mins by kinase-glo plus luminescence assay

IC50 [nM]	SMILES
1.2	CN(C)CCOc1ccc(Nc2ncc3nc(Sc4ccc(F)cc4)n(C4CCOCC4)c3n2)cc1
5.8	CN(C)CCOc1ccc(Nc2ncc3nc(Sc4cccc(F)c4)n(C4CCOCC4)c3n2)cc1
1.9	CN(C)C1CCN(c2ccc(Nc3ncc4nc(Sc5ccccc5)n(C5CCOCC5)c4n3)cc2)CC1
2.4	CN1CCN(c2ccc(Nc3ncc4nc(Sc5ccccc5)n([C@H]5CC[C@H](O)CC5)c4n3)cc2)CC1
2.6	CN(C)CCOc1ccc(Nc2ncc3nc([S+]([O-])c4ccccc4)n(C4CCOCC4)c3n2)cc1 (centres undefined)
4.2	CN1CCN(c2ccc(Nc3ncc4nc([S+]([O-])c5ccccc5)n(C5CCCC5)c4n3)cc2)CC1 (centres undefined)
1.7	CN(C)CCOc1ccc(Nc2ncc3nc(Sc4ccccc4)n(C4CCOCC4)c3n2)cc1
2	CN1CCN(c2ccc(Nc3ncc4nc(Sc5ccccc5)n(C5CCOCC5)c4n3)cc2)CC1
4.2	CN1CCN(c2ccc(Nc3ncc4nc(Sc5ccccc5)n(C5CCCC5)c4n3)cc2)CC1

— BindingDB's records for doi:10.1016/j.bmc.2018.03.025 (Xi'An Jiaotong University, 2018)
